# Publication PMC3948918 (PLoS ONE, 2014)
# Read-outs that look alike come from different tables or passages of the source. Numbered stars: 1 amine (or outer) side, 2 acyl side, 3 side chain; on linkers, the order of the positions; unused ones are H or OH. Bridge positions count the residues as written; N and C are the ends. Square brackets hold non-standard residues; d marks the D form. Peptide text beside a SMILES is read from it. Adda = CO[C@@H](Cc1ccccc1)[C@@H](C)/C=C(C)/C=C/[C@H](N[*:1])[C@H](C)C(=O)[*:2]; dAsp(3S-Me) = C[C@H](C(=O)[*:3])[C@@H](N[*:1])C(=O)[*:2]; d(γGlu) = O=C(O)[C@@H](CCC(=O)[*:2])N[*:1]; NMeDha = C=C(NC)C(=O)O
# Assays:
# [1] = test system: OATP1B1-expressing RKO cells; details: read-out: IC50 RKO B1
# [2] = test system: OATP1B3-expressing RKO cells
# [3] = test system: OATP1B1- and OATP1B3-expressing HeLa or RKO cell lines
# HeLa Control cells [4] = details: read-out: IC50 HeLa Control
# [5] = test system: OATP1B1-expressing HeLa cells; details: read-out: IC50 HeLa B1
# [6] = test system: OATP1B3-expressing HeLa cells; details: for IC50: read-out: IC50 HeLa B3
# OATP1B1 = assay: in vitro; details: human
# HeLa Control cells [7] = details: cited from earlier work
# [8] = test system: OATP1B1-expressing HeLa cells; details: cited from earlier work
# [9] = test system: OATP1B3-expressing HeLa cells; details: cited from earlier work
compound,measurement,setting,value
"C=C1C(=O)N[C@H](C)C(=O)N[C@@H](Cc2ccc(O)cc2)C(=O)N[C@@H](C(=O)O)CC(=O)N[C@@H](CCCNC(=N)N)C(=O)N[C@@H](/C=C/C(C)=C/[C@H](C)[C@H](Cc2ccccc2)OC)[C@H](C)C(=O)N[C@@H](C(=O)O)CCC(=O)N1C [compound 14, [D-Asp^3]MC-YR]",IC50,RKO control cells; read-out: IC50 RKO control,> 1 µM
same,IC50,[1],0.149 µM
same,Ratio IC50 B1/B3 RKO,[2],3.1
same,IC50,[2]; read-out: IC50 RKO B3,0.048 µM
"C/C=C1/NC(=O)CC[C@H](C(=O)O)NC(=O)[C@@H](C)[C@H](/C=C/C(C)=C/[C@H](C)[C@H](Cc2ccccc2)OC)NC(=O)[C@H](CCCNC(=N)N)NC(=O)C[C@H](C(=O)O)NC(=O)[C@H](Cc2ccc(O)cc2)NC(=O)[C@@H](C)NC1=O [compound 15, [D-Asp^3,(E)-Dhb^7]MC-YR]",IC50,RKO control cells; read-out: IC50 RKO control,> 1 µM
same,IC50,[1],0.108 µM
same,Ratio IC50 B1/B3 RKO,[2],4.0
same,IC50,[2]; read-out: IC50 RKO B3,0.0271 µM
same,transporter selectivity (in words),[3],most OATP1B3 selective
"C=C1C(=O)N[C@H](C)C(=O)N[C@@H](CCCNC(=N)N)C(=O)N[C@@H](C(=O)O)[C@H](C)C(=O)N[C@@H](Cc2ccc(O)cc2)C(=O)N[C@@H](/C=C/C(C)=C/[C@H](C)[C@H](Cc2ccccc2)OC)[C@H](C)C(=O)N[C@@H](C(=O)O)CCC(=O)N1C [compound 16, MC-RY] (Y[Adda][d(γGlu)][NMeDha][dA]R[dAsp(3S-Me)]-OH; lactam N-7)",IC50,HeLa Control cells [4],> 1 µM
same,IC50,[5],0.077 µM
same,Ratio IC50 B1/B3 HeLa,[6],30.8
same,IC50,[6],0.0025 µM
same,transporter selectivity (in words),[3],most OATP1B3 selective
"C=C1C(=O)N[C@H](C)C(=O)N[C@@H](Cc2ccc(O)cc2)C(=O)N[C@@H](C(=O)O)[C@H](C)C(=O)N[C@@H](Cc2ccc(O)cc2)C(=O)N[C@@H](/C=C/C(C)=C/[C@H](C)[C@H](Cc2ccccc2)OC)[C@H](C)C(=O)N[C@@H](C(=O)O)CCC(=O)N1C [compound 17, MC-YY] (Y[Adda][d(γGlu)][NMeDha][dA]Y[dAsp(3S-Me)]-OH; lactam N-7)",IC50,HeLa Control cells [4],0.259 µM
same,IC50,[5],0.0015 µM
same,Ratio IC50 B1/B3 HeLa,[6],1.9
same,IC50,[6],0.0008 µM
same,IC50 values (potency grouping),[3],sub-nanomolar
"C/C=C1/NC(=O)CC[C@H](C(=O)O)NC(=O)[C@@H](C)[C@H](/C=C/C(C)=C/[C@H](C)[C@H](Cc2ccccc2)OC)NC(=O)[C@H](Cc2c[nH]c3ccccc23)NC(=O)C[C@H](C(=O)O)NC(=O)[C@H](CCc2ccc(O)cc2)NC(=O)[C@@H](C)NC1=O [compound 20, [D-Asp^3,(E)-Dhb^7]MC-HtyW]",IC50,RKO control cells; 3 h,> 0.1 µM
same,Ratio IC50 B1/B3 RKO,[2],1.9
same,IC50,[2]; human,0.00257 µM
same,IC50,OATP1B1,0.0049 µM
"CO[C@@H](Cc1ccccc1)[C@@H](C)/C=C(C)/C=C/[C@@H]1NC(=O)[C@H](CCCCNC(=N)N)NC(=O)C[C@H](C(=O)O)NC(=O)[C@H](Cc2ccc(O)cc2)NC(=O)[C@@H](C)NC(=O)[C@H](CO)N(C)C(=O)CC[C@H](C(=O)O)NC(=O)[C@H]1C [compound 21, [D-Asp^3,MSer^7]MC-YHar]",IC50,RKO control cells; 3 h,> 1 µM
same,Ratio IC50 B1/B3 RKO,[2],1.6
same,IC50,[2]; human,0.385 µM
same,IC50,[3]; human,> 0.1 µM
same,IC50,OATP1B1,0.625 µM
"C=C1C(=O)N[C@H](C)C(=O)N[C@@H](Cc2ccc(O)cc2)C(=O)N[C@@H](C(=O)O)[C@H](C)C(=O)N[C@@H](CCCNC(=N)N)C(=O)N[C@@H](/C=C/C(C)=C/[C@H](C)[C@H](Cc2ccccc2)OC)[C@H](C)C(=O)N[C@@H](C(=O)OC)CCC(=O)N1C [compound 22, [D-Glu(OMe)^6]MC-YR]",IC50,RKO control cells; read-out: IC50 RKO control,> 1 µM
same,IC50,[1],0.595 µM
same,Ratio IC50 B1/B3 RKO,[2],2.6
same,IC50,[2]; read-out: IC50 RKO B3,0.227 µM
same,IC50,[3]; read-out: IC50 values (potency grouping),> 0.1 µM
"CC=C1C(=O)N[C@@H](C(=O)O)[C@H](C)C(=O)N[C@@H](CCCNC(=N)N)C(=O)N[C@@H](/C=C/C(C)=C/[C@H](C)[C@H](Cc2ccccc2)OC)[C@H](C)C(=O)N[C@@H](C(=O)O)CCC(=O)N1C [compound 23, Nodularin]",IC50,HeLa Control cells [4],> 0.1 µM
same,IC50,[5],0.0084 µM
same,Ratio IC50 B1/B3 HeLa,[6],< 0.1
same,IC50,[6],> 0.1 µM
same,IC50,RKO control cells; read-out: IC50 RKO control,> 0.1 µM
same,IC50,[1],0.01 µM
same,Ratio IC50 B1/B3 RKO,[2],< 0.1
same,IC50,[2]; read-out: IC50 RKO B3,> 0.1 µM
"C=C1[C@@H](O)[C@@H]2O[C@]3(CC[C@H](/C=C/[C@@H](C)[C@@H]4CC(C)=C[C@@]5(O[C@H](C[C@@](C)(O)C(=O)O)CC[C@H]5O)O4)O3)CC[C@H]2O[C@@H]1[C@@H](O)C[C@H](C)[C@H]1O[C@@]2(CCCCO2)CC[C@H]1C [compound 24, okadaic acid]",IC50,HeLa Control cells [7],0.0078 µM
same,IC50,[8],0.0022 µM
same,IC50,[9],0.003 µM
same,Ratio IC50 B1/B3 HeLa,[9],0.7
